What was measured:
[1] = Body weight, fat and lean mass, food intake and activity of treated mice; type: in vivo
Protocol: To determine the source of the body weight difference observed as described in Example 9, the fat and lean mass of the animals used in these experiments were measured using NMR spectroscopy (Bruker BioSpin Corporation, Houston, Tex.). Body fat indices were calculated by dividing fat or lean mass by body weight.
(§1) The therapeutic potential of DNA-PKcs inhibitors to treat insulin resistance and diabetes was tested in vivo using high-fat induced type 2 diabetes and obesity models. We examined the effects of DNA-PKcs inhibition by feeding C57BL6/J mice with Compound 36 (Cpd36) or vehicle. Mice were treated with Cpd36 (8 mg/kg body weight) twice daily by oral gavage for three months in all efficacy studies shown in FIGS. 40-47.
Body weight was monitored in mice receiving Cpd36 (8 mg/kg body weight) twice daily by oral gavage for three months.

[2] = Glucose levels, insulin tolerance and glucose tolerance tests in treated mice; type: in vivo; settings: for fed glucose levels in the serum: 8 mg/kg twice daily oral gavage three months
Protocol: as §1

[3] = Treadmill running endurance; type: in vivo, mice
Protocol: Previous studies have shown that increased expression of PPARδ or PGC-1α in skeletal muscle decreases exercise-induced fatigue. Therefore, tests were performed to ascertain what was the physical endurance of 4, 7 and 14 month-old SCID and WT mice using treadmill running. Prior to the exercise test, the mice were accustomed to and trained by running on an Exer-3/6 mouse treadmill (Columbus Instruments) at 7 m/min for 5 minutes for 3 days. For the endurance test, the treadmill speed was increased to 10 m/min and mice were allowed to run until exhaustion.
The therapeutic potential of DNA-PKcs inhibitors to reverse physical decline with aging was tested. In particular, the physical endurance of obese and middle-aged mice treated with Cpd36 was examined by treadmill running. Obese mice fed a high-fat diet that were treated with Cpd36 were able to run 40-50% farther over a given period of time than the control mice fed the same high fat diet (FIG. 45), as measured by totaling the distance run on a treadmill. Middle-aged mice (13 months) fed a breeder diet who were similarly treated with Cpd36 were also able to run 40-50% farther than middle aged mice that received no such treatment (data not shown).

[4] = Blood lactate during standardized treadmill test; type: in vivo, mice; settings: capillary blood during standardized treadmill test, FIG. 46A
Protocol: The use of Cpd36 may also facilitate more rapid recovery following intense physical exertion. Blood lactate concentrations were measured in capillary blood during a standardized treadmill test.

Elevated plus maze test = type: in vivo, mice
Protocol: To evaluate whether SCID mice may also have altered anxiety, fear and depression-like traits, an elevated plus maze test was performed, which is a commonly used test to quantify the level of anxiety- and depression-like traits in rodents (Pellow et al. J. Neurosci. Methods 14: 149-67 (1985)). The elevated plus maze has narrow runways that are located 16 inches above the surface that are either closed or open. The animal is placed in the center of an elevated 4-arm maze in which 2 arms are open and 2 are enclosed. Mice generally avoid the open arms because of their fear of open space and height. The elevated plus-maze is used to determine the rodent's response to a potentially dangerous environment and anxiety-related behavior is measured by the degree to which the rodent avoids the unenclosed arms of the maze. Increase in the number of times the animal enters the open arm and the amount of time spent in the open arms reflect decreased anxiety and depression.
(§2) Elevated plus maze tests, light/dark chamber tests, forced swim tests (FST) and hot plate tests were performed as described earlier.

Light/dark chamber test = type: in vivo; settings: treated vs untreated mice
Protocol: WT and SCID mice were tested in another anxiety test using the light-dark box (Bourin and Hascoet, Eur J Pharmacol 463:55 (2003)). The light-dark box test is based on the innate aversion of rodents to brightly illuminated areas and on the spontaneous exploratory behavior of rodents in response to a mildly stressful situation, that is, a novel environment and light (Crawley and Goodwin Pharmacol Biochem Behav 13:167, 1980). In the light-dark test, increased activity in the light compartment indicates decreased anxiety.
as §2

Forced swim test (FST) = type: in vivo, mice
Protocol: as §2

[5] = Hot plate test, latency for pain reaction; type: in vivo, mice; settings: hot plate, FIG. 48E
Protocol: Epidemiological studies indicate that people with mood disorders are twice as likely to have chronic pain compared to people without mood disorders (Ohayon et al., Arch. Gen. Psychiatry 60: 39-47 (2003)). Although it is possible that pain contributes to the depressed mood, it is also possible that perception of pain is increased in people with mood disorders. To determine whether SCID mice have altered pain tolerance, the latency for pain reaction to a hot plate was measured. […] (FIG. 30) and at 55° C.
Because tolerance to pain (Example 26) is also linked to the serotonergic pathways, measurements of the latency to pain reaction on hot plate after saline, serotonin reuptake inhibitor fluoxetine (Prozac) or serotonin antagonist GR38032F (Zofran) injection were made.
as §2

C2C12 cells [6] = assay: Cellular lactate and pyruvate in C2C12 cells; type: cell-based; settings: 0.8 μM
C2C12 cells [7] = assay: Intercellular NAD:NADH ratio in C2C12 cells; type: cell-based; settings: FIG. 54, Resveratrol 50 μM data not shown
Protocol: To test whether DNA-PKcs inhibitor affects Sirt1 activity, the intercellular NAD:NADH ratio was measured in C2C12 cells treated with Cpd36.

[8] = Blood-brain barrier penetration inferred from behavioural effects; type: in vivo, mice; settings: inferred from decreased anxiety/depression at a low-dose
Source text: For any central nervous system drugs, a major rate-limiting step for uptake into the brain is BBB permeability. […] The BBB is an essential physiological barrier for the maintenance and regulation of brain function. It is comprised of brain microvascular endothelial cells that are connected by tight junctions. This transvascular route to the brain is impenetrable to the majority of drugs. Enhanced BBB permeability is obtained, for example, by increasing the lipid solubility of the water-soluble molecules.

Compound: O=c1cc(N2CCOCC2)oc2c(-c3cccc4c5c(sc34)CCCC5)cccc12 [Compound 36, 8-(6′,7′,8′,9′-Tetrahydrodibenzothiophen-4′-yl)-2-N-morpholinochromen-4-one]
- fat mass (NMR) ([1]; HFD mice vs control, FIG. 44): reduction in fat mass
- lean mass (NMR) ([1]; HFD mice vs control, FIG. 44): slight increase in lean mass
- body weight ([1]; HFD mice, 8 mg/kg twice daily oral gavage three months, FIG. 43): did not increase in body weight substantially
- food intake ([1]; HFD mice, 8 mg/kg twice daily oral gavage three months, data not shown): did increase
- activity of mice vs control HFD mice ([1]; HFD mice, data not shown): no significant difference
- mesenteric fat ([1]; mice on HFD 3 months, 8 mg/kg twice daily oral gavage 3 months, vs vehicle): reduced mesenteric fat significantly
- fed glucose levels in the serum ([2]; HFD (obese) mice, FIG. 40A): lowered fed glucose levels
- fed glucose levels in the serum ([2]; middle-aged mice (breeder diet 13 months), FIG. 40B): lowered fed glucose levels
- glucose tolerance ([2]; middle-aged mice, FIG. 41): increased
- insulin sensitivity ([2]; middle-aged mice, FIG. 41): increased
- glucose tolerance ([2]; obese mice, FIG. 42): increased
- insulin sensitivity ([2]; obese mice, FIG. 42): increased
- distance run on treadmill, farther than untreated ([3]; middle-aged mice (13 months) on breeder diet, data not shown): 40-50%
- distance run on treadmill, farther than control ([3]; obese mice on high-fat diet, FIG. 45): 40-50%
- serum lactate levels [4]: Significantly lower serum lactate levels
- levels of anxiety/depression (Elevated plus maze test; elevated plus maze and light/dark chamber tests, FIGS. 47 and 48): dramatically lower levels of anxiety/depression
- time in closed arm of the elevated plus maze (Elevated plus maze test; treated vs untreated mice): less time in a closed arm
- time in the light compartment (Light/dark chamber test): more time in the light compartment
- time to enter the light chamber (Light/dark chamber test): quicker to enter the light chamber
- mobility vs untreated mice (Forced swim test (FST); FIG. 47D): more mobile
- immobility in the forced swim test (Forced swim test (FST); data not shown): decreased immobility
- pain sensation [5]: decreased pain sensation
- lactate levels in cell extracts (C2C12 cells [6]; 16 hrs, FIG. 46B): Reduced lactate levels
- Cellular pyruvate level (C2C12 cells [6]; data not shown): increased
- intercellular NAD:NADH ratio (C2C12 cells [7]): increased the NAD:NADH ratio
- blood-brain barrier (BBB) penetration [8]: can penetrate the blood-brain barrier (BBB) efficiently

— patent US20100130597A1, “DNA-PKCS MODULATES ENERGY REGULATION AND BRAIN FUNCTION” (The United State of America, as represented by the …, priority 2007, published 2010)
